Measured values from US11858919B2, “HDAC1,2 inhibitors” (REGENACY PHARMACEUTICALS, LLC, priority 2018, dated 2024).
Read-outs that look alike come from different tables or passages of the source.

Tests used:
HDAC1 = target: T1, HDAC1 (Homo sapiens, UniProt Q13547); experiment: HDAC enzyme assay, HDAC1 (fluorescence, tripeptide substrate/trypsin); format: biochemical; conditions: 3.3 ng/ml enzyme, 16 μM substrate, 10 min preincubation
T1 construct: purchased BPS Biosciences
Method: (§1) Compounds for testing were diluted in […] to 50 fold the final concentration and a ten-point three-fold dilution series was made. The compounds were diluted in assay buffer (50 mM HEPES, pH 7.4, 100 mM KCl, 0.001% Tween-20, 0.05% BSA, 20 μM TCEP) to 6-fold their final concentration. The HDAC enzymes (purchased from BPS Biosciences) were diluted to 1.5-fold their final concentration in assay buffer. The tripeptide substrate and trypsin at 0.05 μM final concentration were diluted in assay buffer at 6-fold their final concentration. The final enzyme concentrations used in these assays were 3.3 ng/ml (HDAC1), 0.2 ng/ml (HDAC2) and 0.08 ng/ml (HDAC3). The final substrate concentrations used were 16 μM (HDAC1), 10 μM (HDAC2) and 17 μM (HDAC3).
(§2) Five μl of compounds and 20 μl of enzyme were added to wells of a black, opaque 384 well plate in duplicate. Enzyme and compound were incubated together at room temperature for 10 minutes. Five μl of substrate was added to each well, the plate was shaken for 60 seconds and placed into a Victor 2 microtiter plate reader. The development of fluorescence was monitored for 60 min and the linear rate of the reaction was calculated. The IC50 was determined using Graph Pad Prism by a four parameter curve fit.

HDAC3 = target: T2, HDAC3 (Homo sapiens, UniProt O15379); experiment: HDAC enzyme assay, HDAC3 (fluorescence, tripeptide substrate/trypsin); format: biochemical; conditions: 0.08 ng/ml enzyme, 17 μM substrate, 10 min preincubation
T2 construct: purchased BPS Biosciences
Method: as §1, §2

HDAC2 = target: T3, HDAC2 (Homo sapiens, UniProt Q92769); experiment: HDAC enzyme assay, HDAC2 (fluorescence, tripeptide substrate/trypsin); format: biochemical; conditions: 0.2 ng/ml enzyme, 10 μM substrate, 10 min preincubation
T3 construct: purchased BPS Biosciences
Method: as §1, §2

[1] = Pharmacokinetics in male SD rats (cassette dosing, IV and PO), plasma level by LC/MS/MS; format: in vivo; conditions: male SD rat; for CL renal: read-out: IV Clr.; for bioavailability: dose adjusted PO AUC (5 mg/kg) to IV AUC (1 mg/kg), read-out: F % (oral bioavailability)
Method: Male SD rats were fasted overnight. Compounds of the invention were dissolved in dimethyl acetamide at 10 times the final concentration, then Solutol HS 15 (BASF) was added to a final concentration of 10%. Finally, 80% saline was added and vortexed to achieve a clear solution. For the IV dosing three animals were injected via the foot dorsal vein with 1 mg/kg compound. For the PO dosing 5 mg/kg of compound was delivered by oral gavage. Blood was collected via the tail vein into K2EDTA tubes at 5 minutes, 15 minutes, 30 minutes, 1 hour, 2 hours, 4 hours, 8 hours and 24 hours after dosing. The blood was centrifuged at 2000 g for 5 minutes at 4° C. to obtain plasma. The plasma was extracted with acetonitrile and the level of compound was analyzed by LC/MS/MS. The level of compound in plasma was calculated from a standard curve in rat plasma. The IV clearance (L/h/kg) and area under the curve (h*ng/mL) were calculated using WinNonLin software. The dose adjusted area under the curve for the IV and oral dosing were used to calculate the oral bioavailability.
Pharmacokinetic properties were assessed in a rat cassette dosing experiment. The IV clearance (IV Clr.) is in units of L/hr/kg. The oral maximum plasma concentration (PO Cmax) is in units of ng/ml. The oral plasma half-life (PO T½) is in units of hours. The oral area under the curve (PO AUC) is in units of hours*ng/ml. The fraction absorbed by the oral route (F %) is a percentage of the oral area under the curve to the IV area under the curve, dose adjusted.

[2] = PO 5 mg/kg oral gavage, read-out: PO AUC
[3] = PO 5 mg/kg oral gavage, read-out: PO t1/2

T1 sequence (Q13547 whole entry): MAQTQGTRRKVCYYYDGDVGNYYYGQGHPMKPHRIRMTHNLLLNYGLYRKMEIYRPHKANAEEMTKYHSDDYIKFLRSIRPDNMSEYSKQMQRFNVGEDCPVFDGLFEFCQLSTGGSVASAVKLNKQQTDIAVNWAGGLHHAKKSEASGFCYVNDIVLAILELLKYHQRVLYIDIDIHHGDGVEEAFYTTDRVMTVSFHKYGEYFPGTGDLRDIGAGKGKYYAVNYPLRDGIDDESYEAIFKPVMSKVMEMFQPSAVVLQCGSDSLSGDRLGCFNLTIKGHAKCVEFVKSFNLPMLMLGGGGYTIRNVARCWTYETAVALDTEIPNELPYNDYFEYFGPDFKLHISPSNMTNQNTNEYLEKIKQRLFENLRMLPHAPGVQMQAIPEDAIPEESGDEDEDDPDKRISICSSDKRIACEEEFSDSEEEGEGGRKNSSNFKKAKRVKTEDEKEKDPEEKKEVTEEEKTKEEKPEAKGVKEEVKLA
T2 sequence (O15379 whole entry): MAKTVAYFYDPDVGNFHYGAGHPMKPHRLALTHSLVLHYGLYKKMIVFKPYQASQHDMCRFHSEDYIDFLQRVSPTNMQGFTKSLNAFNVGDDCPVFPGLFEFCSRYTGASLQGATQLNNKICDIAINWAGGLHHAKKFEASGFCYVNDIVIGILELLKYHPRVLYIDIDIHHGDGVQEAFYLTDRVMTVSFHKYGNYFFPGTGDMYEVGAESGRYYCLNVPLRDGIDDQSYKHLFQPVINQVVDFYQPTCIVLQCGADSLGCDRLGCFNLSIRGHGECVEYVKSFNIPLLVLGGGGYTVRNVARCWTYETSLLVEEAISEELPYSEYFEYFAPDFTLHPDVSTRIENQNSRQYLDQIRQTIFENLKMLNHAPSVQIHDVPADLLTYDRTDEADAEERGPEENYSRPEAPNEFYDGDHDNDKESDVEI
T2 sequence (Q9Y618 395-489 partner limits assumed): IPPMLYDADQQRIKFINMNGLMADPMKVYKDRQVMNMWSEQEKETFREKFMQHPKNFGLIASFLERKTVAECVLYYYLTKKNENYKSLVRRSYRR
T3 sequence (Q92769 whole entry): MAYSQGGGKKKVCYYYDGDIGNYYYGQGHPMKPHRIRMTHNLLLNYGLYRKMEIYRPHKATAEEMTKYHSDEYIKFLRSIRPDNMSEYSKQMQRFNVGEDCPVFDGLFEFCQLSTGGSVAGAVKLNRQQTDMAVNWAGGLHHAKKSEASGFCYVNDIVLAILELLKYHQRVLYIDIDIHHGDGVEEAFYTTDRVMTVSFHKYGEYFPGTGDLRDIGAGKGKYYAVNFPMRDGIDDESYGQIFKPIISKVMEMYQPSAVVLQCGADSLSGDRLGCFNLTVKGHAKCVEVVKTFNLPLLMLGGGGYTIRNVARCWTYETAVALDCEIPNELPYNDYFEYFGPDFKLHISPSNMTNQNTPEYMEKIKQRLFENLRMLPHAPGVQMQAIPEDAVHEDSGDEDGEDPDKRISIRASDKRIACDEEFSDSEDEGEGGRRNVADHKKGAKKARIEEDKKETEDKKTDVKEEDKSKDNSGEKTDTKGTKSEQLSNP

SMILES	IC50 (HDAC1) [nM]	IC50 (HDAC3) [nM]	IC50 (HDAC2) [nM]	AUC ([1]; IV 1 mg/kg, read-out: IV AUC) [ng·h/mL]	CL renal ([1]; IV 1 mg/kg) [mL/min/kg]	half-life ([1]; IV 1 mg/kg, read-out: IV t1/2) [h]	IV clearance ([1]; IV 1 mg/kg) [mL/min/kg]	Cmax ([1]; PO 5 mg/kg oral gavage) [ng/mL]	AUC [1, 2] [ng·h/mL]	half-life [1, 3] [h]	bioavailability [1] [%]
Nc1ccc(-c2cccs2)cc1NC(=O)c1ccc2c(c1)CC(=O)N2CCCN1CCOCC1 [Compound 016]	1 to 10	710 to 720	5 to 15	–	–	–	–	–	–	–	–
COCCNc1ccc2cc(C(=O)Nc3cc(-c4cccs4)ccc3N)cnc2c1 [Compound 029]	15 to 25	750 to 760	50 to 105	20 to 25	< 1.67	1 to 3	–	–	–	–	–
Nc1ccc(-c2ccccc2)cc1NC(=O)c1ccc2c(c1)ncn2CCN1CCOCC1 [Compound 017]	1 to 10	450 to 460	10 to 20	–	–	–	–	–	–	–	–
CN1CCN(c2ccc3cc(C(=O)Nc4cc(-c5cccs5)ccc4N)cnc3c2)CC1 [Compound 032]	5 to 10	280 to 300	25 to 35	< 15	< 8.33	0.5 to 2	–	–	–	–	–
CN(C)CCN(C)c1ccc2cc(C(=O)Nc3cc(-c4cccs4)ccc3N)cnc2c1 [Compound 031]	< 5	240 to 250	15 to 25	1 to 5	< 3.33	0.5 to 1	–	–	–	–	–
Nc1ccc(-c2cccs2)cc1NC(=O)c1ccc2c(c1)CC(=O)N2CCN1CCOCC1 [Compound 003]	1 to 10	145 to 590	5 to 25	1800 to 1900	–	5 to 10	1.67 to 16.7	950 to 1000	11400 to 11600	5 to 10	130 to 140
CN1C(=O)Cc2cc(C(=O)Nc3cc(-c4ccccc4)ccc3N)ccc21 [Compound 012]	25 to 35	875 to 885	20 to 30	29800 to 30000	–	5 to 10	0.167 to 8.33	8200 to 8250	9450 to 9550	15 to 20	60 to 70
Nc1ccc(-c2cccs2)cc1NC(=O)c1ccc2c(c1)CC(=O)N2CCN1CCCCC1 [Compound 006]	10 to 15	1130 to 1140	70 to 75	–	–	–	–	–	–	–	–
COCCN(C)c1ccc2cc(C(=O)Nc3cc(-c4cccs4)ccc3N)cnc2c1 [Compound 030]	50 to 55	1200 to 1230	155 to 160	1 to 5	< 1.67	< 0.5	–	–	–	–	–
Cn1cnc2cc(C(=O)Nc3cc(-c4cccs4)ccc3N)ccc21 [Compound 019]	15 to 20	690 to 700	35 to 40	–	–	–	–	–	–	–	–
Nc1ccc(-c2ccccc2)cc1NC(=O)c1ccc2c(c1)CC(=O)N2CCN1CCOCC1 [Compound 013]	25 to 35	1040 to 1050	70 to 80	2700 to 2800	–	1 to 5	1.67 to 16.7	1900 to 1950	11800	1 to 5	80 to 90
CNCCCOc1ccc2cc(C(=O)Nc3cc(-c4cccs4)ccc3N)cnc2c1 [Compound 026]	25 to 30	85 to 95	20 to 25	–	–	–	–	–	–	–	–
CN1C(=O)Cc2cc(C(=O)Nc3cc(-c4cccs4)ccc3N)ccc21 [Compound 001]	5 to 10	340 to 350	10 to 15	40000 to 40200	–	–	–	6950 to 7000	140000	–	65 to 75
CN(C)CCNc1ccc2cc(C(=O)Nc3cc(-c4cccs4)ccc3N)ncc2c1 [Compound 024]	< 5	15 to 90	5 to 10	20 to 25	< 8.33	15 to 20	–	–	–	–	–
Nc1ccc(-c2cccs2)cc1NC(=O)c1ccc2ncn(CCN3CCOCC3)c2c1 [Compound 022]	885 to 895	1210 to 1220	1240 to 1250	–	–	–	–	–	–	–	–
CN(C)CCNc1ccc2cc(C(=O)Nc3cc(-c4cccs4)ccc3N)cnc2c1 [Compound 025]	5 to 15	110 to 200	15 to 20	15 to 20	< 8.33	1 to 5	–	–	–	–	–
Cn1cnc2ccc(C(=O)Nc3cc(-c4cccs4)ccc3N)cc21 [Compound 010]	375 to 380	985 to 995	210 to 220	–	–	–	–	–	–	–	–
CN1CCN(c2ccc3cc(C(=O)Nc4cc(-c5nccn5C)ccc4N)cnc3c2)CC1 [Compound 027]	> 2000	> 2000	> 2000	–	–	–	–	–	–	–	–
Nc1ccc(-c2ccccc2)cc1NC(=O)c1ccc2ncn(CCN3CCOCC3)c2c1 [Compound 008]	625 to 650	> 2000	> 2000	–	–	–	–	–	–	–	–
CN1C(=O)Cc2cc(C(=O)Nc3cc(-c4ccc(O)cc4)ccc3N)ccc21 [Compound 007]	25 to 30	2740 to 2750	60 to 65	–	–	–	–	–	–	–	–
Nc1ccc(-c2cccs2)cc1NC(=O)c1ccc2[nH]cnc2c1 [Compound 018]	1 to 10	150 to 235	20 to 35	19600 to 19800	–	10 to 15	0.167 to 8.33	5550 to 5600	81800 to 82000	5 to 10	75 to 85
CN1C(=O)Cc2cc(C(=O)Nc3cc(-c4ccco4)ccc3N)ccc21 [Compound 015]	15 to 25	640 to 650	30 to 40	–	–	–	–	–	–	–	–
Nc1ccc(-c2cccs2)cc1NC(=O)c1ccc2nc(N3CCNCC3)ccc2c1 [Compound 028]	50 to 60	290 to 300	50 to 60	–	–	–	–	–	–	–	–
Cc1nc2ccc(C(=O)Nc3cc(-c4cccs4)ccc3N)cc2[nH]1 [Compound 020]	5 to 10	1300 to 1310	25 to 30	–	–	–	–	–	–	–	–
CN1C(=O)C(C)(C)c2cc(C(=O)Nc3cc(-c4cccs4)ccc3N)ccc21 [Compound 014]	4180 to 4200	3370 to 3380	2140 to 2150	–	–	–	–	–	–	–	–
